Reference: ChEMBL document CHEMBL3885881, “DrugMatrix”

Species: Rattus norvegicus
Experiment: DrugMatrix - Regimen: Daily Repeat
Format: toxicity, organism-based, Sprague-Dawley
Set-up: regimen Daily Repeat, gender Male, age 6-8 weeks
Settings: in vivo, po, 500 mg/kg, route oral GAVAGE, dose level High, vehicle 100 % WATER; for ABSOLUTE BASOPHIL / ABSOLUTE EOSINOPHIL / ABSOLUTE LYMPHOCYTE / ABSOLUTE MONOCYTE / ABSOLUTE SEGMENTED NEUTROPHIL / BASOPHIL / EOSINOPHIL / ERYTHROCYTE COUNT / HEMATOCRIT / HEMOGLOBIN / LEUKOCYTE COUNT / LYMPHOCYTE / MEAN CORPUSCULAR HEMOGLOBIN / MEAN CORPUSCULAR HEMOGLOBIN CONCENTRATION / MEAN CORPUSCULAR VOLUME / MONOCYTE / NEUTROPHIL / NUCLEATED RED BLOOD CELLS / PLATELET COUNT: tissue Blood; for ALANINE AMINOTRANSFERASE / ALBUMIN / ALKALINE PHOSPHATASE / ASPARTATE AMINOTRANSFERASE / BLOOD UREA NITROGEN / CARBON DIOXIDE / CHLORIDE / CHOLESTEROL / CREATINE PHOSPHOKINASE / CREATININE / GLUCOSE / LACTATE DEHYDROGENASE / LIPASE / PHOSPHORUS / POTASSIUM / SODIUM / TOTAL BILIRUBIN / TOTAL PROTEIN / URIC ACID: tissue Plasma

Which results are given for `Cc1c(O)c(=O)ccn1C` [DEFERIPRONE]?
ABSOLUTE BASOPHIL (72 h, time 3 day): 0 CELLS/uL; ABSOLUTE EOSINOPHIL (72 h, time 3 day): 97 CELLS/uL; ABSOLUTE LYMPHOCYTE (72 h, time 3 day): 8507 CELLS/uL; ABSOLUTE MONOCYTE (72 h, time 3 day): 223 CELLS/uL; ABSOLUTE SEGMENTED NEUTROPHIL (72 h, time 3 day): 223 CELLS/uL; BASOPHIL (72 h, time 3 day): 0%; EOSINOPHIL (72 h, time 3 day): 1%; ERYTHROCYTE COUNT (72 h, time 3 day): 4.97 x10E6/uL; HEMATOCRIT (72 h, time 3 day): 30.95%; HEMOGLOBIN (72 h, time 3 day): 11.7 G/DL; LEUKOCYTE COUNT (72 h, time 3 day): 9.05 x10E3/uL; LYMPHOCYTE (72 h, time 3 day): 94%; MEAN CORPUSCULAR HEMOGLOBIN (72 h, time 3 day): 23.55 pg; MEAN CORPUSCULAR HEMOGLOBIN CONCENTRATION (72 h, time 3 day): 37.8 G/DL; MEAN CORPUSCULAR VOLUME (72 h, time 3 day): 62.15 fL; MONOCYTE (72 h, time 3 day): 2.5%; NEUTROPHIL (72 h, time 3 day): 2.5%; NUCLEATED RED BLOOD CELLS (72 h, time 3 day): 0 /100WBC; PLATELET COUNT (72 h, time 3 day): 1456.5 x10E3/uL; ALANINE AMINOTRANSFERASE (72 h, time 3 day): 39 u/L; ALBUMIN (72 h, time 3 day): 4.4 G/DL; ALKALINE PHOSPHATASE (72 h, time 3 day): 373 u/L; ASPARTATE AMINOTRANSFERASE (72 h, time 3 day): 80 u/L; BLOOD UREA NITROGEN (72 h, time 3 day): 18.5 mg/dL; CARBON DIOXIDE (72 h, time 3 day): 22.5 mmol/L; CHLORIDE (72 h, time 3 day): 105.5 MEQ/L; CHOLESTEROL (72 h, time 3 day): 119 mg/dL; CREATINE PHOSPHOKINASE (72 h, time 3 day): 322.5 u/L; CREATININE (72 h, time 3 day): 0.18 mg/dL; GLUCOSE (72 h, time 3 day): 131 mg/dL; LACTATE DEHYDROGENASE (72 h, time 3 day): 239 u/L; LIPASE (72 h, time 3 day): 10 u/L; PHOSPHORUS (72 h, time 3 day): 11.5 mg/dL; POTASSIUM (72 h, time 3 day): 6.21 MEQ/L; SODIUM (72 h, time 3 day): 143.8 MEQ/L; TOTAL BILIRUBIN (72 h, time 3 day): 0.25 mg/dL; TOTAL PROTEIN (72 h, time 3 day): 6 G/DL; URIC ACID (72 h, time 3 day): 1.45 mg/dL; ABSOLUTE BASOPHIL (120 h, time 5 day): 0 CELLS/uL; ABSOLUTE EOSINOPHIL (120 h, time 5 day): 0 CELLS/uL; ABSOLUTE LYMPHOCYTE (120 h, time 5 day): 9110 CELLS/uL; ABSOLUTE MONOCYTE (120 h, time 5 day): 78 CELLS/uL; ABSOLUTE SEGMENTED NEUTROPHIL (120 h, time 5 day): 412 CELLS/uL; BASOPHIL (120 h, time 5 day): 0%; EOSINOPHIL (120 h, time 5 day): 0%; ERYTHROCYTE COUNT (120 h, time 5 day): 5.3 x10E6/uL; HEMATOCRIT (120 h, time 5 day): 33.8%; HEMOGLOBIN (120 h, time 5 day): 12.93 G/DL; LEUKOCYTE COUNT (120 h, time 5 day): 9.6 x10E3/uL; LYMPHOCYTE (120 h, time 5 day): 95.33%; MEAN CORPUSCULAR HEMOGLOBIN (120 h, time 5 day): 24.43 pg; MEAN CORPUSCULAR HEMOGLOBIN CONCENTRATION (120 h, time 5 day): 38.27 G/DL; MEAN CORPUSCULAR VOLUME (120 h, time 5 day): 63.8 fL; MONOCYTE (120 h, time 5 day): 0.67%; NEUTROPHIL (120 h, time 5 day): 4%; NUCLEATED RED BLOOD CELLS (120 h, time 5 day): 0 /100WBC; PLATELET COUNT (120 h, time 5 day): 1024.33 x10E3/uL; ALANINE AMINOTRANSFERASE (120 h, time 5 day): 34.33 u/L; ALBUMIN (120 h, time 5 day): 4.7 G/DL; ALKALINE PHOSPHATASE (120 h, time 5 day): 261 u/L; ASPARTATE AMINOTRANSFERASE (120 h, time 5 day): 61.33 u/L; BLOOD UREA NITROGEN (120 h, time 5 day): 17 mg/dL; CARBON DIOXIDE (120 h, time 5 day): 26.33 mmol/L; CHLORIDE (120 h, time 5 day): 109.33 MEQ/L; CHOLESTEROL (120 h, time 5 day): 127 mg/dL; CREATINE PHOSPHOKINASE (120 h, time 5 day): 232.33 u/L; CREATININE (120 h, time 5 day): 0.21 mg/dL; GLUCOSE (120 h, time 5 day): 140.33 mg/dL; LACTATE DEHYDROGENASE (120 h, time 5 day): 60.33 u/L; LIPASE (120 h, time 5 day): 9 u/L; PHOSPHORUS (120 h, time 5 day): 11.03 mg/dL; POTASSIUM (120 h, time 5 day): 6.28 MEQ/L; SODIUM (120 h, time 5 day): 148.93 MEQ/L; TOTAL BILIRUBIN (120 h, time 5 day): 0.2 mg/dL; TOTAL PROTEIN (120 h, time 5 day): 6.63 G/DL; URIC ACID (120 h, time 5 day): 1.83 mg/dL
